Results from patent US20250382556A1, “MODULATION OF THE BRANCHED-CHAIN METABOLITE CONTENT OF FRUITS AND VEGETABLES” (BOARD OF TRUSTEES OF MICHIGAN STATE UNIVERSITY, priority 2024, published 2025).

Key:
[1] = tested on: apple fruit peel; experiment: Complementation of inhibitor-treated apple peel with branched-chain precursors; parameters: species or system Malus x domestica Borkh.
Method: α-Ketoacids (2-oxo acids) were fed to ‘Empire’ and ‘Jonagold’ fruit by preparing vials of excised peel tissue discs in 22-mL glass vials using 20 μL of treatment solution on the prepared paper-peel disc units. Treatment solution contained 20 mM methanol, 0.1% Tween 20, 20 mM of α-keto-β-methylvalerate (3-methyl-2-oxopentanoate), α-ketoisovalerate (3-methyl-2-oxobutanoate), or α-ketoisocaproate (4-methyl-2-oxopentanoate), and when appropriate, 1 mM rimsulfuron.
(§1) ‘Red Delicious’ apple fruit held in refrigerated air for 5 months (see above) plus 1 day at 22° C. and at an advanced ripeness stage (‘ripe’) were treated with rimsulfuron (1 mM) with 0.2% Tween 20 on day 0 of the study and for the next three consecutive days as above described. The fruit were evaluated daily for volatile emissions (see below) for eight days. On days 0, 2, 4, and 7, representative treated and untreated fruit were selected for tissue collection for metabolite analysis (see below). On day 7, samples of fruit peel were fed, as described above, with water or 20 mM isoleucine or α-keto-β-methylvalerate.
Headspace volatiles from small tissue samples incubated in 22 mL vials were adsorbed for 30 s using a solid-phase micro extraction (SPME) fiber (65 μm PDMS-DVB; Supelco Analytical). […]

[2] = tested on: ripe ‘Red Delicious’ apple fruit; experiment: Precursor (isoleucine, α-ketoacid) content of ripe apple peel via derivatization and GCMS, time course; format: in vivo, Malus x domestica Borkh.; conditions: 1 mM rimsulfuron
Method: as §1
To simultaneously quantify branched-chain α-ketoacids and amino acids, 100 mg of ground frozen tissue was extracted in 2 mL of 1:1 acetonitrile: water containing 13 μM U-^13C, ^15N labeled amino acids (MilliporeSigma) as internal standard for 15 min in a 65° C. water bath. […]
One microliter of derivatized sample was analyzed with a GC (Agilent 6890) coupled to a time-of-flight MS (Pegasus II, LECO). […]
Compounds were identified by retention time and spectra of derivatized authenticated standards. Quantification was performed by comparison of the ratios of peak areas of metabolites to labeled internal standards. […] Calibration standards consisted of equimolar mixtures of the analyzed compounds that mimicked 15-0.15 nmoles of analyte in the final derivatized sample. […]

With `CCS(=O)(=O)c1cccnc1S(=O)(=O)NC(=O)Nc1nc(OC)cc(OC)n1` [rimsulfuron, N-((4,6-dimethoxypyrimidin-2-yl)aminocarbonyl)-3-(ethylsulfonyl)-2-pyridinesulfonamide] the “ester production after feeding isoleucine or α-keto-β-methylvalerate to inhibitor-treated peels” value ([1]; ripe Red Delicious, 20 mM precursor on day 7) was “recovery of anteiso-branched-chain esters”, the “2-methylbutyl and 2-methylbutanoate esters after exogenous feeding of α-keto-β-methylvalerate to inhibitor-treated fruit” value ([1]; ripening Jonagold and Empire, 20 mM α-ketoacid) was “at least a partial rescue” and the “isoleucine content, plateau, of control levels” value [2] was 29.1%. For the same compound, the “α-keto-β-methylvalerate content, plateau, of control levels” value [2] was 51.1%.
